According to patent publication US20230076310A1, “COMPOSITION USING NOVEL LACTOBACILLUS PLANTARUM KC3 STRAIN FOR PREVENTION OR TREATMENT OF IMMUNE IMPAIRMENT, RESPIRATORY INFLAMMATORY DISEASE, ALLERGY, AND ASTHMA AND USE THEREOF” (KT&G CORPORATION, priority 2020, published 2023):
Bridge positions count the residues as written; N and C are the ends. Square brackets hold non-standard residues; d marks the D form. Peptide text beside a SMILES is read from it. * marks the point of attachment. Ileψ(thiazoline)Cys = CC[C@H](C)[C@H](N)C1=N[C@H](C(=O)*)CS1; dOrn = NCCC[C@@H](N)C(=O)O

Each compound was assayed on Lactobacillus plantarum KC3 (assay: Antibiotics resistance experiment (antibiotic strips on LSM solid medium)). Settings: antibiotic strip on KC3 lawn, 37° C. for 24 hours.
Assay type: cell-based
Description: In order to confirm antibiotics resistance level of the new lactic acid bacteria from the of the Lactobacillus plantarum KC3 the present disclosure, an experiment was performed as follows by applying the method described in the document ([1] Mathur, S. and R. Singh, Antibiotic resistance in food lactic acid bacteria—A review. Int. J. Food Microbiol 2005 105: 281-295); [2] European Food Safety Authority, Guidance on the assessment of bacterial susceptibility to antimicrobials of human and veterinary importance: EFSA Panel on Additives and Products or Substances used in Animal Feed (FEEDAP). The EFSA Journal 2012 2740:1-10. doi:10.2903/j.efsa.2012.2740).
To measure the antibiotics resistance level of the strain, an MIC test was carried out. Lactic acid bacteria that were inoculated into an MRS medium (DF0881-17-5, Difco) and cultured at 37° C. for 18 hours were spread on an LSM solid medium (90% iso-sensitest broth (CM0473, Oxoid), 10% MRS medium (DF0881-17-5, Difco), and 1.5% agar (214010, Difco)). Strips for each type of antibiotics, such as Amikacin (92018, Liofilchem srl), Gentamycin (92009, Liofilchem srl), Kanamycin (92034, Liofilchem srl), Streptomycin (92112, Liofilchem srl), Penicillin-G (92102, Liofilchem srl), Oxacillin (92015, Liofilchem srl), Ampicillin (920030, Liofilchem srl), Bacitracin (92019, Liofilchem srl), Rifampicin (92001, Liofilchem srl), Polymyxin B (92004, Liofilchem srl), Chloramphenico I (92075, Liofilchem srl), Vancomycin (92057, Liofilchem srl), and the like, were put on the medium, and the bacteria were grown at 37° C. for 24 hours.
In Table 4, R indicates resistance and represents that the size of an inhibition zone is about 0 mm; IS indicates medium resistance and represents that the size of an inhibition zone is in a range of about 1 mm to about 5 mm; and S indicates […] and represents that the size of an inhibition zone is greater than about 5 mm.
With Gentamycin the “Antibiotic resistance (class)” value was “IS (IS indicates medium resistance and represents that the size of an inhibition zone is in a range of about 1 mm to about 5 mm)” and the “Antibiotic resistance, size of inhibition zone” value was “(3 mm)”. For `Cc1onc(-c2ccccc2)c1C(=O)N[C@@H]1C(=O)N2[C@@H]1SC(C)(C)[C@@H]2C(=O)O` [Oxacillin], the “Antibiotic resistance (class)” value was “IS (IS indicates medium resistance and represents that the size of an inhibition zone is in a range of about 1 mm to about 5 mm)” and the “Antibiotic resistance, size of inhibition zone” value was “(2 mm)”. In the case of Polymyxin B, the “Antibiotic resistance (class)” value is reported as “R (R indicates resistance and represents that the size of an inhibition zone is about 0 mm)” and the “Antibiotic resistance, size of inhibition zone” value is reported as “(0 mm)”. In the case of Neomycin, the “Antibiotic resistance (class)” value is reported as “IS (IS indicates medium resistance and represents that the size of an inhibition zone is in a range of about 1 mm to about 5 mm)” and the “Antibiotic resistance, size of inhibition zone” value is reported as “(3 mm)”. With `O=C(N[C@H](CO)[C@H](O)c1ccc([N+](=O)[O-])cc1)C(Cl)Cl` [Chloramphenicol] the “Antibiotic resistance (class)” value was “S (S indicates resistance and represents that the size of an inhibition zone is greater than about 5 mm)” and the “Antibiotic resistance, size of inhibition zone” value was “(10 mm)”. With `NC[C@H]1O[C@H](O[C@H]2[C@H](O)[C@@H](O[C@H]3O[C@H](CO)[C@@H](O)[C@H](N)[C@H]3O)[C@H](N)C[C@@H]2N)[C@H](O)[C@@H](O)[C@@H]1O` [Kanamycin] the “Antibiotic resistance (class)” value was “R (R indicates resistance and represents that the size of an inhibition zone is about 0 mm)” and the “Antibiotic resistance, size of inhibition zone” value was “(0 mm)”. `CN[C@H](CC(C)C)C(=O)N[C@H]1C(=O)N[C@@H](CC(N)=O)C(=O)N[C@H]2C(=O)N[C@H]3C(=O)N[C@H](C(=O)N[C@H](C(=O)O)c4cc(O)cc(O)c4-c4cc3ccc4O)[C@H](O)c3ccc(c(Cl)c3)Oc3cc2cc(c3O[C@@H]2O[C@H](CO)[C@@H](O)[C@H](O)[C@H]2O[C@H]2C[C@](C)(N)[C@H](O)[C@H](C)O2)Oc2ccc(cc2Cl)[C@H]1O` [Vancomycin] was tested, and the “Antibiotic resistance (class)” value was “R (R indicates resistance and represents that the size of an inhibition zone is about 0 mm)” and the “Antibiotic resistance, size of inhibition zone” value was “(0 mm)”. For `CO[C@H]1/C=C/O[C@@]2(C)Oc3c(C)c(O)c4c(O)c(c(/C=N/N5CCN(C)CC5)c(O)c4c3C2=O)NC(=O)/C(C)=C\C=C\[C@H](C)[C@H](O)[C@@H](C)[C@@H](O)[C@@H](C)[C@H](OC(C)=O)[C@@H]1C` [Rifampicin], the “Antibiotic resistance (class)” value was “S (S indicates resistance and represents that the size of an inhibition zone is greater than about 5 mm)” and the “Antibiotic resistance, size of inhibition zone” value was “(7 mm)”. With `[H]/N=C(/N)N[C@H]1[C@H](O)[C@@H](O)[C@H](O[C@@H]2O[C@@H](C)[C@](O)(C=O)[C@H]2O[C@@H]2O[C@@H](CO)[C@H](O)[C@@H](O)[C@@H]2NC)[C@@H](N/C(N)=N\[H])[C@@H]1O` [Streptomycin] the “Antibiotic resistance (class)” value was “R (R indicates resistance and represents that the size of an inhibition zone is about 0 mm)” and the “Antibiotic resistance, size of inhibition zone” value was “(0 mm)”. With `CC1(C)S[C@@H]2[C@H](NC(=O)Cc3ccccc3)C(=O)N2[C@H]1C(=O)O` [Penicillin-G] the “Antibiotic resistance (class)” value was “IS (IS indicates medium resistance and represents that the size of an inhibition zone is in a range of about 1 mm to about 5 mm)” and the “Antibiotic resistance, size of inhibition zone” value was “(5 mm)”. In the case of `CC[C@H](C)[C@H](N)C1=N[C@H](C(=O)N[C@@H](CC(C)C)C(=O)N[C@H](CCC(=O)O)C(=O)N[C@H](C(=O)N[C@H]2CCCCNC(=O)[C@H](CC(N)=O)NC(=O)[C@@H](CC(=O)O)NC(=O)[C@H](Cc3cnc[nH]3)NC(=O)[C@@H](Cc3ccccc3)NC(=O)[C@H]([C@@H](C)CC)NC(=O)[C@@H](CCCN)NC2=O)[C@@H](C)CC)CS1` [Bacitracin] ({Ileψ(thiazoline)Cys}-L[dE]IK[dOrn]I[dF]H[dD]N; lactam 4-C), the “Antibiotic resistance (class)” value is reported as “S (S indicates resistance and represents that the size of an inhibition zone is greater than about 5 mm)” and the “Antibiotic resistance, size of inhibition zone” value is reported as “(7 mm)”.
